The source of these data is ChEMBL document CHEMBL1143296, “Thienopyrimidine-based dual EGFR/ErbB-2 inhibitors” (Bioorg Med Chem Lett, 2009).

Assay [1] concerns HN5. The assay is described as follows: Antiproliferative activity against human HN5 cells expressing EGFR by MEB assay.
The test system of assay [2] is BT-474. The assay is described as follows: Antiproliferative activity against human BT474 cells expressing ErbB2 by MEB assay.
The test system of assay [3] is HFF. Put plainly: Antiproliferative activity against HFF after 72 hrs by MEB assay. As to conditions: Homo sapiens.
Assay [4] has as its target T1, Receptor tyrosine-protein kinase erbB-2 (Homo sapiens, UniProt P04626).
The target in assay [5] is Epidermal growth factor receptor (Homo sapiens, UniProt P00533).
Assay [6] deals with HN5. The assay is described as follows: Antiproliferative activity against human HN5 cells expressing EGFR after 72 hrs by CTG assay. As to conditions: HN5, 72 h.
Assay [7] deals with BT-474. Put plainly: Antiproliferative activity against human BT474 cells expressing ErbB2 after 72 hrs by CTG assay. As to conditions: BT-474, 72 h.
In assay [8] the test system is HFF. The assay is described as follows: Antiproliferative activity against HFF after 72 hrs by CTG assay. As to conditions: Homo sapiens.
The target in assay [9] is T1, Receptor tyrosine-protein kinase erbB-2. The assay is described as follows: Inhibition of ErbB2 intracellular autophosphorylation of ErbB2 in human BT474 cells by DELFIA assay. Format: cell-based, BT-474.

Bounds are passed on as bounds.

T1 sequence (P04626 whole entry): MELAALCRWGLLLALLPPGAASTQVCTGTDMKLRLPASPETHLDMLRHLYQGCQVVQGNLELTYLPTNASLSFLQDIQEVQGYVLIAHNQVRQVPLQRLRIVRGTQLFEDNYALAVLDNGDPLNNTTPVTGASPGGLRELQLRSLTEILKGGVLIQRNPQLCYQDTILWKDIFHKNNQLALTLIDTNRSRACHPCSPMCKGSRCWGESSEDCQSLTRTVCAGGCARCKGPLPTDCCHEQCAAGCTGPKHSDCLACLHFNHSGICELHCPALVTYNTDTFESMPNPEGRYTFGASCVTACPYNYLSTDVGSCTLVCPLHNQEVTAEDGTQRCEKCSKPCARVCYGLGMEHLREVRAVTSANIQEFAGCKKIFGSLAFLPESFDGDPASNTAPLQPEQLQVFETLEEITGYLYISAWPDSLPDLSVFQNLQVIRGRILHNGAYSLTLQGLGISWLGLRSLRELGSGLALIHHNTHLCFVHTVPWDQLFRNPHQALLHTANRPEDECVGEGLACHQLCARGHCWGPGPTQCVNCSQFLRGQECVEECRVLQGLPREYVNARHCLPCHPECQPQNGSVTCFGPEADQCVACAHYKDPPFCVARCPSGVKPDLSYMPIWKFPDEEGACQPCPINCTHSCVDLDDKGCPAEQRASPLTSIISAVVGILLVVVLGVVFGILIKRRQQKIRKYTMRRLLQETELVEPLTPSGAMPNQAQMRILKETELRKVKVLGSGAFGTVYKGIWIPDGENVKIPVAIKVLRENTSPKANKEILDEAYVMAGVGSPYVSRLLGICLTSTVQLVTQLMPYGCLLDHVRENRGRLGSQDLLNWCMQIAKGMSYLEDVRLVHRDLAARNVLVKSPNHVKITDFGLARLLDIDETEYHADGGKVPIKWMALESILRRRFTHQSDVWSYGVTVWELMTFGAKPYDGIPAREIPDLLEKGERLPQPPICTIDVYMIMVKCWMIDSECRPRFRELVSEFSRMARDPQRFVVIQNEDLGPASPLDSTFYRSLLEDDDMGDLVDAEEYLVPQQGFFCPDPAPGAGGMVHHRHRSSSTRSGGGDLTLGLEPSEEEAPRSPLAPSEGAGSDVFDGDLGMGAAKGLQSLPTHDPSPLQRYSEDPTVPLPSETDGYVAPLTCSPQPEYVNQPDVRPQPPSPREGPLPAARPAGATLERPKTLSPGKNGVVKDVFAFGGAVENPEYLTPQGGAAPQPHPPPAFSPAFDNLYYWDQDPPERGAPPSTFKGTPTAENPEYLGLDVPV
Sequence of Epidermal growth factor receptor (P00533 whole entry): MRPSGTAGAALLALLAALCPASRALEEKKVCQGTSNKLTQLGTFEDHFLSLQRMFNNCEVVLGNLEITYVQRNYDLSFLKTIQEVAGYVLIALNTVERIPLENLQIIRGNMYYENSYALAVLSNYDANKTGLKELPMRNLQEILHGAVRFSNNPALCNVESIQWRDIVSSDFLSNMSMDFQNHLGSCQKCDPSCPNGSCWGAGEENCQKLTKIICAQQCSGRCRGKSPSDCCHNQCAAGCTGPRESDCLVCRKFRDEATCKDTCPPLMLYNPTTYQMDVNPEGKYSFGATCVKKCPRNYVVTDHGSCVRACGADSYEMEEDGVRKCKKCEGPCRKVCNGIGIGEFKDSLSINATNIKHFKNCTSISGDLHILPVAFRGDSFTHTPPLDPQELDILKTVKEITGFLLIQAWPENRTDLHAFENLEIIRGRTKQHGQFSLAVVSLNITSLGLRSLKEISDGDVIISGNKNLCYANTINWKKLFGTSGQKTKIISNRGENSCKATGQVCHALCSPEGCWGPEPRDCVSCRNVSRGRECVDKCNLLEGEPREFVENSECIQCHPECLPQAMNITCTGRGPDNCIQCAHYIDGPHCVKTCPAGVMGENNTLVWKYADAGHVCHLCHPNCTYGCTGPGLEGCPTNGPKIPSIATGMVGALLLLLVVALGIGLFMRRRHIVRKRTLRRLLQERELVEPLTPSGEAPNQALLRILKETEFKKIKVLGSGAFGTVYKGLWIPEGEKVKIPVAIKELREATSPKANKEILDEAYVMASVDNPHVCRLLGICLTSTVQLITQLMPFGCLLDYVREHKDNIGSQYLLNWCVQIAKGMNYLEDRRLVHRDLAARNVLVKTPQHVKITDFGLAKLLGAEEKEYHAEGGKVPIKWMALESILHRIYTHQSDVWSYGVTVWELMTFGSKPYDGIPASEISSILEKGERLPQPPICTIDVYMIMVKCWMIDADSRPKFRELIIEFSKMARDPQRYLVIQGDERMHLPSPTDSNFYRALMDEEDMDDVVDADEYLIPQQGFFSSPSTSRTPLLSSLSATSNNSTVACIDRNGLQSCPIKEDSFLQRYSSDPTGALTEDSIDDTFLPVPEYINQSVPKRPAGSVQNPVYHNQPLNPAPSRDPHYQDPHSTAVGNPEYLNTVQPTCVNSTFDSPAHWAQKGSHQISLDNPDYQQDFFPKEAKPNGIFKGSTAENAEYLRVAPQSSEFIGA

As usually defined, the IC50 is the concentration that inhibits the measured activity by half. Turning to `CS(=O)(=O)CCNCc1cc(-c2cc3ncnc(Nc4ccc(OCc5cccc(F)c5)c(Cl)c4)c3s2)cs1`, the IC50 in the assay with HN5 [1] is 100 nM; in the assay with BT-474 [2], 600 nM; in the assay with HFF [3], greater than 30000 nM; in assay [4], 31 nM; in [5], 3 nM.
On to `CN(C)Cc1ccc(-c2cc3ncnc(Nc4ccc(OCc5cccc(F)c5)c(Cl)c4)c3s2)[nH]1`, for which the IC50 in assay [4] was 76 nM; in assay [5], 4 nM.
`CS(=O)(=O)CCNCc1ccc(-c2cc3c(Nc4ccc(OCc5cccc(F)c5)c(Cl)c4)ncnc3s2)o1`: the IC50 in the assay on HN5 [6] was 420 nM; in the assay with BT-474 [7], 420 nM; in the assay with HFF [8], 19500 nM; in [4], 6 nM; in assay [5], 12 nM.
Turning to `CS(=O)(=O)CCNCc1ccc(-c2ccc3ncnc(Nc4ccc(OCc5cccc(F)c5)c(Cl)c4)c3c2)o1` [LAPATINIB DITOSYLATE], the IC50 with BT-474 [2] worked out at 100 nM.
For the molecule `CS(=O)(=O)CCNCc1ccc(-c2cc3c(Nc4ccc(OCc5cccc(F)c5)c(Cl)c4)ncnc3s2)s1`, the IC50 in assay [4] turned out to be 95 nM; in [5], 96 nM.
For `CN(C)Cc1ccc(-c2cc3c(Nc4ccc(OCc5cccc(F)c5)c(Cl)c4)ncnc3s2)[nH]1`, in that order: 246 nM and 68 nM.
The corresponding values for `CCNCc1ccc(-c2cc3c(Nc4ccc(OCc5cccc(F)c5)c(Cl)c4)ncnc3s2)[nH]1` are 111 nM and 121 nM.
Consider `OCc1ccc(-c2cc3ncnc(Nc4ccc(OCc5cccc(F)c5)c(Cl)c4)c3s2)o1`, for which the IC50 is 100 nM in the assay with HN5 [1]; 720 nM in the assay with BT-474 [2]; 9390 nM in the assay with HFF [3]; 122 nM in assay [4]; 3 nM in assay [5].
`CS(=O)(=O)CCNCc1cc(-c2cc3c(Nc4ccc(OCc5cccc(F)c5)c(Cl)c4)ncnc3s2)cs1` [GSK-300014A]: the IC50 in assay [4] was determined as 299 nM; in [5] it was 304 nM.
With `CS(=O)(=O)CCNCc1ccc(-c2cc3ncnc(Nc4ccc(OCc5cccc(F)c5)c(Cl)c4)c3s2)[nH]1`, the IC50 with HN5 [6] was 770 nM; in the assay on BT-474 [7], 630 nM; in the assay on HFF [8] it was 3730 nM; in [9], 431 nM; in assay [4], 113 nM; in assay [5] it was 7 nM.
Regarding `CN(C)Cc1ccc(-c2cc3ncnc(Nc4ccc(OCc5cccc(F)c5)c(Cl)c4)c3s2)o1`, the IC50 is 1220 nM with HN5 [6]; 1880 nM in the assay with BT-474 [7]; 4460 nM with HFF [8]; 146 nM in assay [4]; 2 nM in assay [5].
The corresponding values for `Fc1cccc(COc2ccc(Nc3ncnc4sc(-c5cccs5)cc34)cc2Cl)c1` [GW684626B] are 10100 nM, 3220 nM, 9720 nM, 43 nM and 9 nM.
For `Fc1cccc(COc2ccc(Nc3ncnc4sc(-c5ccco5)cc34)cc2Cl)c1` [GSK-969786A], in that order: greater than 30000 nM, greater than 30000 nM, greater than 30000 nM, 14 nM and 15 nM.
Turning to `Fc1cccc(COc2ccc(Nc3ncnc4sc(-c5ccc(CNCc6ccccc6)o5)cc34)cc2Cl)c1`, the IC50 in assay [4] was 898 nM; in assay [5] it was 54 nM.
As for `CS(=O)(=O)CCNCc1cc(-c2cc3ncnc(Nc4ccc(OCc5cccc(F)c5)c(Cl)c4)c3s2)co1`, the IC50 with BT-474 [2] amounted to 730 nM; in the assay with HFF [3], 7950 nM.
Turning to `Fc1cccc(COc2ccc(Nc3ncnc4sc(-c5ccc[nH]5)cc34)cc2Cl)c1`, the IC50 in the assay on HN5 [1] was 2710 nM; with BT-474 [2] it was 1980 nM; with HFF [3], greater than 3000 nM; in assay [4] it was 203 nM; in assay [5], 115 nM.
With `Fc1cccc(COc2ccc(Nc3ncnc4cc(-c5ccc[nH]5)sc34)cc2Cl)c1`, the IC50 is 570 nM in the assay on HN5 [1]; 540 nM in the assay with BT-474 [2]; 2370 nM with HFF [3]; 826 nM in [9]; 121 nM in assay [4]; 68 nM in assay [5].
On to `CN1CCN(Cc2ccc(-c3cc4ncnc(Nc5ccc(OCc6cccc(F)c6)c(Cl)c5)c4s3)o2)CC1` [GW784684X], for which the IC50 was determined as 250 nM in [4] and 5 nM in assay [5].
For the molecule `CS(=O)(=O)CCNCc1ccc(-c2cc3ncnc(Nc4ccc(OCc5cccc(F)c5)c(Cl)c4)c3s2)o1`, the IC50 in the assay with HN5 [6] was 410 nM; in the assay on BT-474 [7], 420 nM; in the assay with HFF [8], greater than 30000 nM; in [4] it was 71 nM; in assay [5], 1 nM.
Consider `CS(=O)(=O)CCNCc1ccc(-c2cc3c(Nc4ccc(OCc5cccc(F)c5)c(Cl)c4)ncnc3s2)[nH]1`, for which the IC50 in assay [4] was 153 nM; in assay [5], 138 nM.
For the molecule `Fc1cccc(COc2ccc(Nc3ncnc4cc(-c5ccco5)sc34)cc2Cl)c1`, the IC50 in the assay on HN5 [6] was 8090 nM; in the assay with BT-474 [7], 21200 nM; in the assay with HFF [8] it was greater than 30000 nM; in assay [4], 709 nM; in assay [5], 10 nM.
In the case of `CCNCc1ccc(-c2cc3ncnc(Nc4ccc(OCc5cccc(F)c5)c(Cl)c4)c3s2)[nH]1`, the IC50 was 68 nM in assay [4] and 6 nM in assay [5].
Consider `N#CCNCc1ccc(-c2cc3ncnc(Nc4ccc(OCc5cccc(F)c5)c(Cl)c4)c3s2)o1`, for which, in [4], 68 nM corresponded to half-maximal inhibition (IC50).
As for `Fc1cccc(COc2ccc(Nc3ncnc4cc(-c5cccs5)sc34)cc2Cl)c1`, the IC50 with HN5 [6] was found to be 2190 nM; with BT-474 [7], 5770 nM; in the assay on HFF [8], 10700 nM; in [4], 113 nM; in [5], 8 nM.
